Columns and labels:
[1] = Hemolytic activity in human RBC assessed as hemolysis rate at 2048 microg/ml relative to control; type: toxicity, cell-based, Erythrocyte; conditions: red blood cells, at 2048 µg/mL, read-out: Activity
[2] = Toxicity in iv dosed ICR mouse assessed as maximum tolerated dose; type: organism-based; conditions: in vivo
Rattus norvegicus [3] = assay: Neuromuscular block activity in propofol-induced anesthetized Sprague-Dawley rat model assessed as inhibition of twitch by measuring twitch intensity of quadriceps muscle at 0.2 mg/kg, iv administered as bolus dose by TOF watch monitor analysis relative to control; type: functional
Rattus norvegicus [4] = assay: Neuromuscular block activity in propofol-induced anesthetized Sprague-Dawley rat model assessed as recovery time at 0.032 mg/kg, iv; type: functional
Rattus norvegicus [5] = assay: Neuromuscular block activity in propofol-induced anesthetized Sprague-Dawley rat model assessed as time duration of 0 to 25 percent recovery indices at 10 mg/kg, iv; type: functional
Rattus norvegicus [6] = assay: Neuromuscular block activity in propofol-induced anesthetized Sprague-Dawley rat model assessed as inhibition of twitch by measuring twitch intensity of quadriceps muscle at 1.5 mg/kg, iv administered as bolus dose by TOF watch monitor analysis relative to control; type: functional
[7] = Toxicity in Sprague-Dawley rat assessed as lung damage at 3 mg/kg, iv measured after 5 hrs by H and E staining based analysis; type: organism-based; conditions: in vivo
Rattus norvegicus [8] = assay: Neuromuscular block activity in propofol-induced anesthetized iv dosed Sprague-Dawley rat model assessed as effective dose; type: functional
Rattus norvegicus [9] = assay: Neuromuscular block activity in propofol-induced anesthetized Sprague-Dawley rat model assessed as onset time required for twitch reduction at 0.04 mg/kg, iv; type: functional
Rattus norvegicus [10] = assay: Neuromuscular block activity in propofol-induced anesthetized Sprague-Dawley rat model assessed as onset time required for twitch reduction at 1.5 mg/kg, iv; type: functional
[11] = Mutagenicity in Salmonella typhimurium TA98 by AMES test; type: toxicity; conditions: salmonella enterica subsp. enterica serovar typhimurium
[12] = Mutagenicity in Salmonella typhimurium TA100 by AMES test; type: toxicity; conditions: salmonella enterica subsp. enterica serovar typhimurium
H9c2 = assay: Cytotoxicity against rat H9c2 cells assessed as cell viability at 150 microg/ml measured for 24 hrs by SRB assay; type: toxicity, cell-based; conditions: h9c2, 24 h, dose 150 µg/ml
[13] = Hemolytic activity in rat RBC assessed as hemolysis rate at 2048 microg/ml relative to control; type: toxicity, cell-based, Erythrocyte; conditions: red blood cells, at 2048 µg/mL, read-out: Activity
[14] = Toxicity in Sprague-Dawley rat assessed as spleen damage at 3 mg/kg, iv measured after 5 hrs by H and E staining based analysis; type: organism-based; conditions: in vivo
Rattus norvegicus [15] = assay: Neuromuscular block activity in propofol-induced anesthetized Sprague-Dawley rat model assessed as time duration of 0 to 25 percent recovery indices at 0.2 mg/kg, iv; type: functional
Rattus norvegicus [16] = assay: Neuromuscular block activity in propofol-induced anesthetized Sprague-Dawley rat model assessed as time duration of 0 to 25 percent recovery indices at 0.04 mg/kg, iv; type: functional
Rattus norvegicus [17] = assay: Neuromuscular block activity in propofol-induced anesthetized Sprague-Dawley rat model assessed as inhibition of twitch by measuring twitch intensity of quadriceps muscle at 0.04 mg/kg, iv administered as bolus dose by TOF watch monitor analysis relative to control; type: functional
[18] = Toxicity in Sprague-Dawley rat assessed as liver damage at 3 mg/kg, iv measured after 5 hrs by H and E staining based analysis; type: organism-based; conditions: in vivo
Rattus norvegicus [19] = assay: Neuromuscular block activity in propofol-induced anesthetized Sprague-Dawley rat model assessed as inhibition of twitch by measuring twitch intensity of quadriceps muscle at 3 mg/kg, iv administered as bolus dose by TOF watch monitor analysis relative to control; type: functional
Rattus norvegicus [20] = assay: Neuromuscular block activity in propofol-induced anesthetized Sprague-Dawley rat model assessed as time duration of 0 to 25 percent recovery indices at 3 mg/kg, iv; type: functional
Rattus norvegicus [21] = assay: Neuromuscular block activity in propofol-induced anesthetized Sprague-Dawley rat model assessed as inhibition of twitch by measuring twitch intensity of quadriceps muscle at 10 mg/kg, iv administered as bolus dose by TOF watch monitor analysis relative to control; type: functional
Rattus norvegicus [22] = assay: Neuromuscular block activity in propofol-induced anesthetized Sprague-Dawley rat model assessed as onset time required for twitch reduction at 0.032 mg/kg, iv; type: functional
Rattus norvegicus [23] = assay: Neuromuscular block activity in propofol-induced anesthetized Sprague-Dawley rat model assessed as onset time required for twitch reduction at 10 mg/kg, iv; type: functional
[24] = Toxicity in Sprague-Dawley rat assessed as kidney damage at 3 mg/kg, iv measured after 5 hrs by H and E staining based analysis; type: organism-based; conditions: in vivo
[25] = Mutagenicity in Salmonella typhimurium TA97a by AMES test; type: toxicity; conditions: salmonella enterica subsp. enterica serovar typhimurium
[26] = Solubility of compound in water; type: physicochemical
Rattus norvegicus [27] = assay: Neuromuscular block activity in propofol-induced anesthetized Sprague-Dawley rat model assessed as onset time required for twitch reduction at 0.2 mg/kg, iv; type: functional
Rattus norvegicus [28] = assay: Neuromuscular block activity in propofol-induced anesthetized Sprague-Dawley rat model assessed as time duration of 0 to 25 percent recovery indices at 1.5 mg/kg, iv; type: functional
[29] = Toxicity in Sprague-Dawley rat assessed as heart damage at 3 mg/kg, iv measured after 5 hrs by H and E staining based analysis; type: organism-based; conditions: in vivo
Rattus norvegicus [30] = assay: Neuromuscular block activity in propofol-induced anesthetized Sprague-Dawley rat model assessed as time duration of 0 to 25 percent recovery indices at 0.032 mg/kg, iv; type: functional
Rattus norvegicus [31] = assay: Neuromuscular block activity in propofol-induced anesthetized Sprague-Dawley rat model assessed as onset time required for twitch reduction at 3 mg/kg, iv; type: functional
Rattus norvegicus [32] = assay: Neuromuscular block activity in propofol-induced anesthetized Sprague-Dawley rat model assessed as inhibition of twitch by measuring twitch intensity of quadriceps muscle at 0.032 mg/kg, iv administered as bolus dose by TOF watch monitor analysis relative to control; type: functional
[33] = target: Voltage-gated inwardly rectifying potassium channel KCNH2 (Homo sapiens, UniProt Q12809); assay: Inhibition of hERG by Qpatch assay; type: toxicity
Chain of Voltage-gated inwardly rectifying potassium channel KCNH2 (Q12809 whole entry): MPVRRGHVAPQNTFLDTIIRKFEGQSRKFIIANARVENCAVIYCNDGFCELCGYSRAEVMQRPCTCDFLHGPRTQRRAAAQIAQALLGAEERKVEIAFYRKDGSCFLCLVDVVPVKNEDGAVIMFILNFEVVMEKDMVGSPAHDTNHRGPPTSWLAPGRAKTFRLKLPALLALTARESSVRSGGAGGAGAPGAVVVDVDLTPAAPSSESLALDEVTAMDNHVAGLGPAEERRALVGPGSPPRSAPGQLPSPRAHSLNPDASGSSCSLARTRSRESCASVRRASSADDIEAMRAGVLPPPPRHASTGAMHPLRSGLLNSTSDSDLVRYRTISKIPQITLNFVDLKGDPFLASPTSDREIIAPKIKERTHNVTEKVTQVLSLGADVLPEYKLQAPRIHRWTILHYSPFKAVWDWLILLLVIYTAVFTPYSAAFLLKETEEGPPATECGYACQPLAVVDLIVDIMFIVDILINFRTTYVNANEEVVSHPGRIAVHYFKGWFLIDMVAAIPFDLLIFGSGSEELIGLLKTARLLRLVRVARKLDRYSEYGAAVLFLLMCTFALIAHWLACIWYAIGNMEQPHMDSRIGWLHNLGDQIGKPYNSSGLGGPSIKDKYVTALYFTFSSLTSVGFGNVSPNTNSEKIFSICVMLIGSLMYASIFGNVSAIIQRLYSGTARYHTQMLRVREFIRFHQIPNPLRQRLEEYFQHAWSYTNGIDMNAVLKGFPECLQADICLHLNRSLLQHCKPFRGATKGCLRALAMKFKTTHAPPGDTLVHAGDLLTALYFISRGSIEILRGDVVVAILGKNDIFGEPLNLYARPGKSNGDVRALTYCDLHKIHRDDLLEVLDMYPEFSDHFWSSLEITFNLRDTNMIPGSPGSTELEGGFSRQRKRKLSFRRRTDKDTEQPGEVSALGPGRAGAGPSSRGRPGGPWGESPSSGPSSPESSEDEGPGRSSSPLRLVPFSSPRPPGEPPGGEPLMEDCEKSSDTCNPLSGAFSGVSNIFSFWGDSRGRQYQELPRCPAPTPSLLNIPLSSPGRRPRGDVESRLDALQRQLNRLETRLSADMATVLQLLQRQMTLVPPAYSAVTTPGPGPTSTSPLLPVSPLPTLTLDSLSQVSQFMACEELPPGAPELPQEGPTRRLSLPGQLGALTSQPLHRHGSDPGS

With Cc1n2cc[n+]1Cc1ccc(cc1)Oc1ccc(cc1)C[n+]1ccn(c1C)CCCn1cc[n+](c1C)Cc1ccc(cc1)Oc1ccc(cc1)C[n+]1ccn(c1C)CCC2.[Cl-].[Cl-].[Cl-].[Cl-] the hemolysis at 2048 microg/ml [1] was < 5%, the MTD [2] was 550 mg/kg and the inhibition in vivo at 0.2 mg/kg (Rattus norvegicus [3]) was 100%. The Time (Rattus norvegicus [4]) was 7.6 min, the Time (Rattus norvegicus [5]) was >300 min and the inhibition in vivo at 1.5 mg/kg (Rattus norvegicus [6]) was 100%. The Activity [7] was “Non-toxic”, the ED50 (Rattus norvegicus [8]) was 0.016 mg/kg and the Time (Rattus norvegicus [9]) was 90 s. The Time (Rattus norvegicus [10]) was 13 s, the Activity [11] was “Non-toxic” and the Activity [12] was “Non-toxic”. The Activity (H9c2) was “Non-toxic”, the hemolysis at 2048 microg/ml [13] was < 5% and the Activity [14] was “Non-toxic”. The Time (Rattus norvegicus [15]) was 217 min, the Time (Rattus norvegicus [16]) was 102 min and the inhibition in vivo at 0.04 mg/kg (Rattus norvegicus [17]) was 90%. For the same molecule, the Activity [18] was “Non-toxic”, the inhibition in vivo at 3 mg/kg (Rattus norvegicus [19]) was 100% and the Time (Rattus norvegicus [20]) was >300 min. The inhibition in vivo at 10 mg/kg (Rattus norvegicus [21]) was 100%, the Time (Rattus norvegicus [22]) was 293 s and the Time (Rattus norvegicus [23]) was 9 s. For the same molecule, the Activity [24] was “Non-toxic”, the Activity [25] was “Non-toxic” and the solubility [26] was ≥ 50 mM. For the same molecule, the Time (Rattus norvegicus [27]) was 20.5 s, the Time (Rattus norvegicus [28]) was >300 min and the Activity [29] was “Non-toxic”. It also gave a Time (Rattus norvegicus [30]) of 35 min, a Time (Rattus norvegicus [31]) of 9 s and an inhibition in vivo at 0.032 mg/kg (Rattus norvegicus [32]) of 90%. The IC50 [33] was > 40 µM.

Source: ChEMBL document CHEMBL6109061, “Discovery of an Ultralong-acting Nondepolarizing Neuromuscular Blocker That Displays Short Onset Time and On-Demand Rapid Reversal by a Biocompatible Antagonist” (J Med Chem, 2025)
